# Reference: ChEMBL document CHEMBL1201862, “PubChem BioAssay data set” (2004)
# Activity calls are given as the source filed them.
# Tests used:
# [1] = target: T1, Lysine-specific demethylase 4C (Homo sapiens, UniProt Q9H3R0); test: GASC-1 (JMJD2C) histone demethylase inhibitors, dose response, biochemical, DELFIA europium, cherry-picked samples (AID 488835); assay type: functional
# T1 sequence (Q9H3R0 whole entry): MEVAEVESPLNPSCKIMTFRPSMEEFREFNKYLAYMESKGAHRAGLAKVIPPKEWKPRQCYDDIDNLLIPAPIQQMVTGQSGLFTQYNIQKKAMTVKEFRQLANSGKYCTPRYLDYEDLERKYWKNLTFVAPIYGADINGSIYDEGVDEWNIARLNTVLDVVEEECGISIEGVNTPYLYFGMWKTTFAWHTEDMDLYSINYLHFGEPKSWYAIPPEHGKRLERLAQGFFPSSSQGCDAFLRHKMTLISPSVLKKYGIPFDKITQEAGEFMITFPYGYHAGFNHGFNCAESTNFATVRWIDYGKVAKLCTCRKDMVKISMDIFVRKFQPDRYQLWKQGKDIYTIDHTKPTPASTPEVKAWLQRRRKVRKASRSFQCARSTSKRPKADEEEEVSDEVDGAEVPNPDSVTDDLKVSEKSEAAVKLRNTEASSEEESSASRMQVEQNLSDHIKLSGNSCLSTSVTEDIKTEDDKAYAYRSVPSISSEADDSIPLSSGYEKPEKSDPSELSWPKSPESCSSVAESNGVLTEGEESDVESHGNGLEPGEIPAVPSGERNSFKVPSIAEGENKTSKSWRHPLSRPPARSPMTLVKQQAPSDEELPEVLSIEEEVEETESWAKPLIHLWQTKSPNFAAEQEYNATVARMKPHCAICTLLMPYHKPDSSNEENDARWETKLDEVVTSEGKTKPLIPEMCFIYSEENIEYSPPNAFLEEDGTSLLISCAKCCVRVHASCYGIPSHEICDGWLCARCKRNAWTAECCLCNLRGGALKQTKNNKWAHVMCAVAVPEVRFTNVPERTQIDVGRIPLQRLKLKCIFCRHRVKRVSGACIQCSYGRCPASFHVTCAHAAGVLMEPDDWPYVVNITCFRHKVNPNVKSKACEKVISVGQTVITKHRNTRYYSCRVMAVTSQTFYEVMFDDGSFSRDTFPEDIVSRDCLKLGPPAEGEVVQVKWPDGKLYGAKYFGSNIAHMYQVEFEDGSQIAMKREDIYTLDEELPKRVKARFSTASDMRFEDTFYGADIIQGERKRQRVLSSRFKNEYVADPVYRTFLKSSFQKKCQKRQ
# INS1 = test: beta cell apoptosis inhibitors, cytokine rescue, dose response, luminescence, retest (AID 449756); assay type: functional, cell-based; settings: Rattus norvegicus;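 also: cell death triggered by IL-1 beta plus TNF-alpha plus IFN-gamma mixture; protective hits raise ATP signal compared with cytokine alone wells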
# Caspase-6 = target: T2, Caspase-6 (Homo sapiens, UniProt P55212); test: human caspase-6 inhibitors, dose response, biochemical, VEID-R110 fluorescence, cherry-pick (AID 720632)
# T2 sequence (P55212 whole entry): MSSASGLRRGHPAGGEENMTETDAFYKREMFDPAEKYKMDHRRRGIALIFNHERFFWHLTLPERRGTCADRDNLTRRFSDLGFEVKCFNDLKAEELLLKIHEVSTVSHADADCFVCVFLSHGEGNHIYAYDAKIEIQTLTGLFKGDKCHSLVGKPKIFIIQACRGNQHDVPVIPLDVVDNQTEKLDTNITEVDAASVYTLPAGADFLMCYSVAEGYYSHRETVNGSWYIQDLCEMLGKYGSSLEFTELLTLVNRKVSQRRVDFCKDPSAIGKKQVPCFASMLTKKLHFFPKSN
# [2] = target: Luciferin 4-monooxygenase (Photinus pyralis, UniProt P08659); test: firefly luciferase enzyme inhibitors, dose response, biochemical, luminescence (AID 1891)
# BJ [3] = test: cytotoxicity toward BJ-TERT fibroblasts, dose response, cell-based, RAS-independent, luminescence (AID 1933); assay type: functional; settings: Homo sapiens
# [4] = Luminescence Cell-Based Dose Confirmation HTS to Identify Inhibitors of Platelet Dense Granule Release. [Related pubchem assays: 1663 (Primary HTS), 1678 (Summary of Project)]; assay type: functional
# [5] = cytotoxicity toward DRD oncogenic fibroblasts, dose response, cell-based, non-viral oncogenic, luminescence (AID 1934); assay type: functional; settings: Homo sapiens
# BJ [6] = test: cytotoxicity toward BJ-TERT-LT-ST fibroblasts, dose response, cell-based, RAS-independent, luminescence (AID 1935); assay type: functional; settings: Homo sapiens;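 also: BJ fibroblasts immortalized with TERT plus LT and ST oncogenes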
# BJ [7] = test: cells; assay type: functional, cell-based; settings: Homo sapiens
# Trypsin = Trypsin (Sus scrofa, UniProt P00761); test: porcine trypsin inhibitors, dose response, selectivity assay for Rce1 protease inhibitor project, biochemical, quenched peptide fluorescence, cherry-pick (AID 488789)
# Protein RecA = target: T3, Protein RecA (Mycobacterium tuberculosis, UniProt P9WHJ3); test: Fluorescence Cell-Free Homogeneous Dose Retest to Identify Inhibitors of RecA-Intein Splicing Activity. [Related pubchem assays (depositor defined):AID2097, AID2223, AID489010, AID492950]; assay type: functional
# T3 sequence (P9WHJ3 whole entry): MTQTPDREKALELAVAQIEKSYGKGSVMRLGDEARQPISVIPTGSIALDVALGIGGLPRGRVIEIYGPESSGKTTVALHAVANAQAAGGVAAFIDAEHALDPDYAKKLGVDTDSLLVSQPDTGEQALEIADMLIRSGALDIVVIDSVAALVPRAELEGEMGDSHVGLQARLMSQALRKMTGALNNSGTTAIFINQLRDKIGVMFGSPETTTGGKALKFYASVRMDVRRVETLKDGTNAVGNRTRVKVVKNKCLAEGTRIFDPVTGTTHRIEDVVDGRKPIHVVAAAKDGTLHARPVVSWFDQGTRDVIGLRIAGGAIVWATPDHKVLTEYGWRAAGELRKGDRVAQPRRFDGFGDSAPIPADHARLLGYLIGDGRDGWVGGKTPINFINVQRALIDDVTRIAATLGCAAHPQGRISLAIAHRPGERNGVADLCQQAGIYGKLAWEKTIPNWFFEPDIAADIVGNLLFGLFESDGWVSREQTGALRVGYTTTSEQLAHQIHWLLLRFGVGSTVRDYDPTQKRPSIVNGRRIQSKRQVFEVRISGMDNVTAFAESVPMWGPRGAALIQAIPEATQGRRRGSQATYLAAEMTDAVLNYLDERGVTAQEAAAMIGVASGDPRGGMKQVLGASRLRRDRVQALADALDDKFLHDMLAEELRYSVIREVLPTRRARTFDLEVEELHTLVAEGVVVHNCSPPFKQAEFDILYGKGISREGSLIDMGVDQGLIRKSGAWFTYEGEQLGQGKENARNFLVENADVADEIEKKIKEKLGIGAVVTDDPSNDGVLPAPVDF
# [8] = target: T4, Replicative DNA helicase DnaB (Mycobacterium tuberculosis, UniProt P9WMR3); test: DnaB intein splicing inhibitors, dose response, biochemical, cell-free fluorescence (AID 449749); assay type: functional
# T4 sequence (P9WMR3 whole entry): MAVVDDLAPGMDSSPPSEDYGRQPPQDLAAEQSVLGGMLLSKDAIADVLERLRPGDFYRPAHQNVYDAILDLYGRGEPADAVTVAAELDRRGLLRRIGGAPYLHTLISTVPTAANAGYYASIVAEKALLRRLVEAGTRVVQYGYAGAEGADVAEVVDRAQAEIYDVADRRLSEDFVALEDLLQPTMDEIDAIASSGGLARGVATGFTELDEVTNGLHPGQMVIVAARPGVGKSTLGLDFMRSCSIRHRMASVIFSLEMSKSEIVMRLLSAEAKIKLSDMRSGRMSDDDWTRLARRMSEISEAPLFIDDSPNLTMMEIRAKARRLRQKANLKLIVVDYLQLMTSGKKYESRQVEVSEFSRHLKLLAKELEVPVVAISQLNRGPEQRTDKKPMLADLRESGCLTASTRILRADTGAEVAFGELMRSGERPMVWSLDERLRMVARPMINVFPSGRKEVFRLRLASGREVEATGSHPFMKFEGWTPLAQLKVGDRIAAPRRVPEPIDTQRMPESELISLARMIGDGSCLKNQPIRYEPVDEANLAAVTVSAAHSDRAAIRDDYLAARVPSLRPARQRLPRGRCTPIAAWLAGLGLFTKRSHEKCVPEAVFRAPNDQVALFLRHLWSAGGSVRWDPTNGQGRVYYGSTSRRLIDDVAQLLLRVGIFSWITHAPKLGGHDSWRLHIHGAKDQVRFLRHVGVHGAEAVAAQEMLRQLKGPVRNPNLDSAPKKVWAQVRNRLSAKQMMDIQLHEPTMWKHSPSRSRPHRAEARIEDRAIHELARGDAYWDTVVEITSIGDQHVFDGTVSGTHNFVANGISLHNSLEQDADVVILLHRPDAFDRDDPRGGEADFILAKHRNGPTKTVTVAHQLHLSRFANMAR
# Genome polyprotein = Genome polyprotein (dengue virus type 2, UniProt P29990); test: Dengue-2 NS5 methyltransferase inhibitors, primary screen, biochemical, confirmation dose response (AID 588689); assay type: functional
# [9] = human group III sPLA2 inhibitors, dose response, biochemical, QFRET, IC50 (AID 743457);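 also: green fluorescence rise as the enzyme cleaves BODIPY PC-A2 in liposomes; potency for inhibition of the enzyme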
# [10] = target: T5, Fructose-bisphosphate aldolase (Mycobacterium tuberculosis, UniProt P9WQA3); test: Fluorescence-based biochemical high throughput dose response assay for inhibitors of the fructose-bisphosphate aldolase (FBA) of M. tuberculosis.; assay type: functional
# T5 sequence (P9WQA3 whole entry): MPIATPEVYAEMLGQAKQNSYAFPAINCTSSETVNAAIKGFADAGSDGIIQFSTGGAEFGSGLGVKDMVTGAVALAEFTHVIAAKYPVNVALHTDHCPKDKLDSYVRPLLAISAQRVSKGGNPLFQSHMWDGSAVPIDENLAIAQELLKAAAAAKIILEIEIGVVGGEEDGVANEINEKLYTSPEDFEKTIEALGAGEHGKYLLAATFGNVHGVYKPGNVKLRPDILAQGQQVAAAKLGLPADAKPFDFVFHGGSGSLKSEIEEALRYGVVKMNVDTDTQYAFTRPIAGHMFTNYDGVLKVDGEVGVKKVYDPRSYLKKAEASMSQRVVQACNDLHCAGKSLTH
# [11] = HEp-2 cell cytotoxicity, dose response, cytotoxicity control for RSV inhibitor project, HTS (AID 2410); assay type: functional; settings: human respiratory syncytial virus
# [12] = MC4R antagonists, dose response, counter-screen for LGR2 antagonist project, cell-based, plate reader, cherry pick (AID 743444); assay type: functional;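 also: transfected HEK 293 cells stimulated with alpha-MSH peptide; potency of inhibitors of the alpha-MSH evoked signal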
# [13] = HEK293 cell cytotoxicity, dose response, cytotoxicity control, plate reader, cherry-picked samples (AID 743446); assay type: functional, cell-based
# [14] = LGR2 antagonists, dose response, cell-based, HEK293, CRE-luciferase reporter, cherry pick, set 2 (AID 743343); assay type: functional;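 also: transfected cells were stimulated with diluted bursicon conditioned medium after compound addition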
# Large T antigen = Large T antigen (Simian virus 40, UniProt P03070); assay type: functional, Betapolyomavirus macacae;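 also: Confirmatory-stage PubChem screen for compounds that inhibit SV40 T antigen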
# [15] = HEK293T cytotoxicity, dose response, cytotoxicity control for miR-122 modulator project, cell-based, inhibitor set, cherry-pick, set 2 (AID 720697); assay type: functional
# [16] = A549 cell cytotoxicity, dose response, cytotoxicity control, plate reader, cherry-pick, antagonist series (AID 743412); assay type: functional, cell-based
# Sequence of Large T antigen (P03070 whole entry): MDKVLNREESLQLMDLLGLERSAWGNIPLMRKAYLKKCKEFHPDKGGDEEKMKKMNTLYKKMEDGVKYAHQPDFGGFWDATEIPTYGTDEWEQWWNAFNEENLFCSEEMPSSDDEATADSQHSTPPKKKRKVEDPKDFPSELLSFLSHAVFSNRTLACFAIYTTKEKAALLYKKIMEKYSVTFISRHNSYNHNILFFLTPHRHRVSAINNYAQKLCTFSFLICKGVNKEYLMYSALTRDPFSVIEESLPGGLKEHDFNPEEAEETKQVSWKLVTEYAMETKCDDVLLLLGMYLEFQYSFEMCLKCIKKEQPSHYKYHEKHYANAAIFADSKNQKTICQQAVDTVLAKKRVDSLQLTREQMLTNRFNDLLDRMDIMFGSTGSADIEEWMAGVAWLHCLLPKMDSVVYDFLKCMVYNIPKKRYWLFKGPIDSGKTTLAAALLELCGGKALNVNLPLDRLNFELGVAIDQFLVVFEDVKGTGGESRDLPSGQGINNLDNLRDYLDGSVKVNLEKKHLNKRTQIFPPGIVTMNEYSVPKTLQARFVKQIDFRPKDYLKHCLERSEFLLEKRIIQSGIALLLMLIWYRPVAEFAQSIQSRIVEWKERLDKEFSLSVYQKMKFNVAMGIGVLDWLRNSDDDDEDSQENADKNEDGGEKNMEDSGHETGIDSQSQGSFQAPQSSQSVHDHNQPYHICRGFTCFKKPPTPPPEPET
# Sequence of Genome polyprotein (P29990 2492-3391 limits assumed): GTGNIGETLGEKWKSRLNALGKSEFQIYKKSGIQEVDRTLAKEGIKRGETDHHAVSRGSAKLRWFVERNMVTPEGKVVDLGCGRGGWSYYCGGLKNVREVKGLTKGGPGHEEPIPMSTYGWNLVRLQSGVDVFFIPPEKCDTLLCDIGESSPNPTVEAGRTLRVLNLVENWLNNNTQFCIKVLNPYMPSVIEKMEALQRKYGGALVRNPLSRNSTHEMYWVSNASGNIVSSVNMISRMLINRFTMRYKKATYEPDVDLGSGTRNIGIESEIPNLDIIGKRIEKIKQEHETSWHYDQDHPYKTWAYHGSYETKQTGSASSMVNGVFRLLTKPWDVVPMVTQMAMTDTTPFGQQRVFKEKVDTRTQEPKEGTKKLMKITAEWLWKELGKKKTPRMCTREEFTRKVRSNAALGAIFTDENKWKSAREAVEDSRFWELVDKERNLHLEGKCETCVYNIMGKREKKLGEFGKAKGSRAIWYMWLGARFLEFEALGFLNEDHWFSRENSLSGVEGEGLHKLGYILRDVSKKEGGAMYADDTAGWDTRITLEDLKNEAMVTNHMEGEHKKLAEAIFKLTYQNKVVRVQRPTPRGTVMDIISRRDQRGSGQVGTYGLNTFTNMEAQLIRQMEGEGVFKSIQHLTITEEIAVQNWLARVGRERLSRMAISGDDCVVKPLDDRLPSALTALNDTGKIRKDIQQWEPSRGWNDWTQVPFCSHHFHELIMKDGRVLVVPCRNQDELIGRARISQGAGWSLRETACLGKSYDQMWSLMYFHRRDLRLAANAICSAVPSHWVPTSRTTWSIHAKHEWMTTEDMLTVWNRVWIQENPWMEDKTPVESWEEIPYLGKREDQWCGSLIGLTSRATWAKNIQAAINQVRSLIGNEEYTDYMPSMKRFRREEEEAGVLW
# Sequence of Trypsin (P00761 whole entry): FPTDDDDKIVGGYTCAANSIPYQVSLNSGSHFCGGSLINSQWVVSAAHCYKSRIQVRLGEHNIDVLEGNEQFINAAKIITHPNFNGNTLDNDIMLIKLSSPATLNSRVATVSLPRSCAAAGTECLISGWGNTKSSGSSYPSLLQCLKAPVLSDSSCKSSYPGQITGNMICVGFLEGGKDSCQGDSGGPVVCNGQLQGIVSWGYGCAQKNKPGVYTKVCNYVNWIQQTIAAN
# Sequence of Luciferin 4-monooxygenase (P08659 whole entry): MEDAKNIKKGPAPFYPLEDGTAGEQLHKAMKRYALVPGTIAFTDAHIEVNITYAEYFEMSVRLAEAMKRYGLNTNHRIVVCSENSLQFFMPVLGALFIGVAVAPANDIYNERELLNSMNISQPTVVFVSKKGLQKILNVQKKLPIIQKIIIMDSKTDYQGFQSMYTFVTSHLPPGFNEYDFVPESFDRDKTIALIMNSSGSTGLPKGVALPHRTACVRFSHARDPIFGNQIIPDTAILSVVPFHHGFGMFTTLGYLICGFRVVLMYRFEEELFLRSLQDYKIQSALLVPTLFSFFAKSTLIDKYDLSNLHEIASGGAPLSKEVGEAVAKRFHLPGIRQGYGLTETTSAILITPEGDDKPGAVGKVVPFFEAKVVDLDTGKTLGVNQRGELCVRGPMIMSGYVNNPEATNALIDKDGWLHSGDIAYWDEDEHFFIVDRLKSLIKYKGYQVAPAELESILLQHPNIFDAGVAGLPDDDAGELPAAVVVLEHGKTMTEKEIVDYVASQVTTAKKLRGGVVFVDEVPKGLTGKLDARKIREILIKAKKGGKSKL
compound,measurement,setting,value
O=S(=O)(c1ccc2nc(Nc3ccccc3)ccc2c1)N1CCCCC1,AC50,[1],6.53 µM (active)
same,AC50,INS1,12.2 µM (active)
Cn1c(N=Nc2ccccc2)nc2ccccc21,AC50,Caspase-6,38.1 µM (active)
same,EC50,[2],1.5 µM (active)
same,EC50,BJ [3],6.48 µM (active)
same,EC50,[4],1.78 µM (active)
same,EC50,[5],6.84 µM (inconclusive)
same,EC50,BJ [6],9.38 µM (active)
same,EC50,BJ [7],4.78 µM (inconclusive)
O=C(Nc1ccccc1)n1ccc(-c2ccc(-n3ccnc3)cc2)n1,AC50,Trypsin,17.9 µM (active)
COc1ccc2nc3cccc(OC)c3nc2c1,EC50,Protein RecA,20.8 µM (active)
same,AC50,Caspase-6,23.1 µM (active)
same,AC50,[8],> 380 µM (inactive)
same,IC50,Genome polyprotein,> 100 µM (active)
CC(C)(C)c1csc(NNC(=O)c2ccc(Cl)cc2)n1,IC50,[9],> 122 µM (inactive)
CCOC(=O)c1c(C)n(C)c2ccc(O)c(S(=O)(=O)c3ccccc3)c12,AC50,[1],9.92 µM (active)
CCS(=O)(=O)N1N=C(c2ccc(NS(C)(=O)=O)cc2)CC1c1ccccc1 (stereo not given),IC50,[10],> 370 nM (active)
CCOc1ccc(NC(=NCc2ccc3c(c2)OCO3)SC2CC(=O)N(c3ccc(C(=O)O)cc3)C2=O)cc1 (stereo not given),CC50,[11],22.8 µM (active)
same,IC50,cells,15.6 µM (active)
CSc1nc2ccc(NC(=O)c3ccccn3)cc2s1,AC50,[12],5.41 µM (active)
same,AC50,[13],> 52 µM (inactive)
same,AC50,[14],4.16 µM (active)
O=S(=O)(Nc1ccc(O)cc1)c1cccc2cccnc12,IC50,Large T antigen,7.36 µM (active)
O=C(NNc1nc(-c2ccccc2)cs1)c1ccco1,IC50,[9],> 122 µM (inactive)
CCn1c(=O)c2cc(C(=O)N(C)c3cc(C)ccc3OC)sc2c2ccccc21,CC50,[11],21.2 µM (active)
same,IC50,cells,21.5 µM (active)
CCC(C)N=C(S)N1CCN(C)CC1 (stereo not given),AC50,[1],26.5 µM (active)
Sc1nnc(CCc2ccccc2)n1-c1ccc(Cl)cc1,IC50,[9],> 122 µM (inactive)
Cc1nc2cc(-c3cccs3)nn2c(O)c1C,IC50,[10],> 3330 nM (active)
CC(C)NC(=O)N1[C@H](CO)[C@@H](c2ccccc2)[C@@H]1CN(C)C(=O)c1cccnc1,AC50,[15],538 nM (active)
COCC(=O)N1CCCCN2[C@H](CO)[C@H](c3ccc(-c4cccc(C)c4)cc3)[C@@H]2C1,AC50,[12],23.6 µM (active)
same,AC50,[16],> 52 µM (inactive)
same,AC50,[13],> 52 µM (inactive)
same,AC50,[14],18 µM (active)
CC(=N)/C(C#N)=C(/O)COC(=O)c1ccncc1,IC50,cells,1.14 µM (active)
